Measured values from patent publication US12084472B2 (Ardelyx, Inc., priority 2015, dated 2024).

Each compound was assayed against T1, human TGR5 (Homo sapiens, UniProt Q8TDU6) (assay: Cell-based TGR5 assay (cAMP generation, HTRF)). Conditions: HEK293 cells stably transfected with human TGR5; cAMP by HTRF; 30 minutes at 37° C.; read-out: pEC50 Human TGR5 (converted).
T1 construct: expressed in transfected cells; host or cells: HEK293
T1 sequence (Q8TDU6 1-330): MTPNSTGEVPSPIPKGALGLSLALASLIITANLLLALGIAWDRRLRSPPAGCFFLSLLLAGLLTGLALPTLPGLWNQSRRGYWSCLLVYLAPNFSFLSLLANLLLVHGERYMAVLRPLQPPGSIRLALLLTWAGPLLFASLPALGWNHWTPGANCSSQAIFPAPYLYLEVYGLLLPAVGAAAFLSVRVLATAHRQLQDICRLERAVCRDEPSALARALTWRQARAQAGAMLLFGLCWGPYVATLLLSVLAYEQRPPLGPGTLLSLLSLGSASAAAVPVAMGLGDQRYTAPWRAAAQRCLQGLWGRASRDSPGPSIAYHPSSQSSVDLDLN
Procedure, shortened: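 Read-out was HTRF detection of cAMP, converted to concentration via a standard curve and fitted (3-parameter logistic) for pEC50 and maximal response. Agonist stimulation used HEK293 cells stably transfected with human TGR5, incubated 30 min at 37° C in IBMX-containing buffer at 0.05 nM to 10 μM compound.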

SMILES | EC50 [nM]
O=C1CCCN1CCCN(CCCSc1ccc(Cl)c(COC2(c3cnccc3-c3ccccc3OC3CC3)CC2)c1)C(=O)[C@@H](O)[C@@H](O)[C@H](O)[C@@H](O)CO [Compound I-520, (2S,3S,4R,5S)-N-(3-{[4-chloro-3-({1-[4-(2-cyclopropoxyphenyl)pyridin-3-yl]cyclopropoxy}methyl)phenyl]sulfanyl}propyl)-2,3,4,5,6-pentahydroxy-N-[3-(2-oxopyrrolidin-1-yl)propyl]hexanamide] | 126 to 1000
CN(CCCCCSc1ccc(Cl)c(CNC2(c3cnccc3-c3ccccc3OC3CC3)CC2)c1)C(=O)[C@@H](O)[C@@H](O)[C@H](O)[C@@H](O)CO [Compound I-507, (2S,3S,4R,5S)-N-[5-({4-chloro-3-[({11-[4-(2-cyclopropoxyphenyl)pyridin-3-yl]cyclopropyl}amino)methyl]phenyl}sulfanyl)pentyl]-2,3,4,5,6-pentahydroxy-N-methylhexanamide] | < 100
CN(C[C@H](O)[C@@H](O)[C@H](O)[C@H](O)CO)C(=O)CN1CCN(CCNC(=O)CCCCc2cc(Cl)c(COC3(c4cnccc4-c4ccccc4OC4CC4)CC3)cc2Cl)CC1 [Compound I-100, 5-[2,5-dichloro-4-({1-[4-(2-cyclopropoxyphenyl)pyridin-3-yl]cyclopropoxy}methyl)phenyl]-N-{2-[4-({methyl[(2S,3R,4R,5R)-2,3,4,5,6-pentahydroxyhexyl]carbamoyl}methyl)piperazin-1-yl]ethyl}pentanamide] | < 100
Cn1c(C(=O)N[C@@H](CO)[C@@H](O)[C@H](O)[C@H](O)CO)cnc1SCc1ccc(Cl)c(COC2(c3cnccc3-c3ccccc3OC3CC3)CC2)c1 [Compound I-759, 2-((4-chloro-3-((1-(4-(2-cyclopropoxyphenyl)pyridin-3-yl)cyclopropoxy)methyl)benzyl)thio)-1-methyl-N-((2S,3R,4S,5R)-1,3,4,5,6-pentahydroxyhexan-2-yl)-1H-imidazole-5-carboxamide] | 126 to 1000
CN(CCOCCNC(=O)N[C@@H](CO)[C@@H](O)[C@H](O)[C@H](O)CO)S(=O)(=O)c1ccc(Cl)c(COC2(c3cnccc3-c3ccccc3OC3CC3)CC2)c1 (stereo in doubt) [Compound I-406, 1-(2-{2-[N-methyl4-chloro-3-({1-[4-(2-cyclopropoxyphenyl)pyridin-3-yl]cyclopropoxy}methyl)benzenesulfonamido]ethoxy}ethyl)-3-[(2S,3R,4S,5R)-1,3,4,5,6-pentahydroxyhexan-2-yl]urea] | < 100
O=C(O)CNC(=O)N(CCCCc1cc(Cl)c(COC2(c3cnccc3-c3ccccc3OC3CC3)CC2)cc1Cl)C[C@H](O)[C@@H](O)[C@H](O)[C@H](O)CO (stereo in doubt) [Compound I-197, 2-[({4-[2,5-dichloro-4-({1-[4-(2-cyclopropoxyphenyl)pyridin-3-yl]cyclopropoxy}methyl)phenyl]butyl}[(2S,3R,4R,5R)-2,3,4,5,6-pentahydroxyhexyl]carbamoyl)amino]acetic acid] | 126 to 1000
COC[C@@H](O)CN(C[C@H](O)[C@@H](O)[C@H](O)[C@H](O)CO)C(=O)CCCCc1cc(Cl)c(COC2(c3cnccc3-c3ccccc3OC3CC3)CC2)cc1Cl [Compound I-125, 5-[2,5-dichloro-4-({1-[4-(2-cyclopropoxyphenyl)pyridin-3-yl]cyclopropoxy}methyl)phenyl]-N-[(2S)-2-hydroxy-3-methoxypropyl]-N-[(2S,3R,4R,5R)-2,3,4,5,6-pentahydroxyhexyl]pentanamide] | < 100
CC(CCCC(=O)N(CCO)C[C@H](O)[C@@H](O)[C@H](O)[C@H](O)CO)c1ccc(Cl)c(COC2(c3cnccc3-c3ccccc3OC3CC3)CC2)c1 (stereo partly drawn) [Compound I-374, 5-[4-chloro-3-({1-[4-(2-cyclopropoxyphenyl)pyridin-3-yl]cyclopropoxy}methyl)phenyl]-N-(2-hydroxyethyl)-N-[(2S,3R,4R,5R)-2,3,4,5,6-pentahydroxyhexyl]hexanamide] | < 100
CS(=O)(=O)NCCCCN(CCCSc1ccc(Cl)c(CNC2(c3cnccc3-c3ccccc3OC3CC3)CC2)c1)C(=O)[C@@H](O)[C@@H](O)[C@H](O)[C@@H](O)CO [Compound I-599, (2S,3S,4R,5S)-N-[3-({4-chloro-3-[({1-[4-(2-cyclopropoxyphenyl)pyridin-3-yl]cyclopropyl}amino)methyl]phenyl}sulfanyl)propyl]-2,3,4,5,6-pentahydroxy-N-(4-methanesulfonamidobutyl) hexanamide] | < 100
O=C([C@H](O)[C@@H](O)[C@H](O)[C@H](O)CO)N(CCCCCCO)CCCCc1cc(Cl)c(COC2(c3cnccc3-c3ccccc3OC3CC3)CC2)cc1Cl [Compound I-83, (2R,3S,4R,5R)-N-{4-[2,5-dichloro-4-({1-[4-(2-cyclopropoxyphenyl)pyridin-3-yl]cyclopropoxy}methyl)phenyl]butyl}-2,3,4,5,6-pentahydroxy-N-(6-hydroxyhexyl)hexanamide] | < 100
Cc1ccc(CCCCNC(=O)N(C)C[C@H](O)[C@@H](O)[C@H](O)[C@H](O)CO)nc1CNC1(c2cnccc2-c2ccccc2OC2CC2)CC1 [Compound I-706] | 1260 to 10000
O=C(NC[C@H](O)[C@@H](O)[C@H](O)[C@H](O)CO)c1cccc(OCc2ccc(Cl)c(COC3(c4cnccc4-c4ccccc4OC4CC4)CC3)c2)c1 [Compound I-727, 3-((4-chloro-3-((1-(4-(2-cyclopropoxyphenyl)pyridin-3-yl)cyclopropoxy)methyl)benzyl)oxy)-N-((2S,3R,4R,5R)-2,3,4,5,6-pentahydroxyhexyl)benzamide] | 126 to 1000
Cc1ccc(SCCCN(CCOCCO)C(=O)[C@@H](O)[C@@H](O)[C@H](O)[C@@H](O)CO)cc1CNC1(c2cnccc2-c2ccccc2OC2CC2)CC1 [Compound I-545, (2S,3S,4R,5S)-N-[3-({3-[({1-[4-(2-cyclopropoxyphenyl)pyridin-3-yl]cyclopropyl}amino)methyl]-4-methylphenyl}sulfanyl)propyl]-2,3,4,5,6-pentahydroxy-N-[2-(2-hydroxyethoxy)ethyl]hexanamide] | 126 to 1000
CN(CCCCc1cc(Cl)c(COC2(c3cnccc3-c3ccccc3OC3CC3)CC2)cc1Cl)C(=O)NC[C@H](O)[C@@H](O)[C@H](O)[C@H](O)CO (stereo in doubt) [Compound I-204, 1-{4-[2,5-dichloro-4-({1-[4-(2-cyclopropoxyphenyl)pyridin-3-yl]cyclopropoxy}methyl)phenyl]butyl}-1-methyl-3-[(2S,3R,4R,5R)-2,3,4,5,6-pentahydroxyhexyl]urea] | < 100
FC(F)(F)COc1ccccc1-c1ccncc1C1(NCc2cc(Cl)ccc2Cl)CC1 [Compound I-8, N-[(2,5-dichlorophenyl)methyl]-1-{4-[2-(2,2,2-trifluoroethoxy)phenyl]pyridin-3-yl}cyclopropan-1-amine] | 126 to 1000
C[C@@H](CCCCNC(=O)NC[C@H](O)[C@@H](O)[C@H](O)[C@H](O)CO)c1ccc(Cl)c(CNC2(c3cnccc3-c3ccccc3OC3CC3)CC2)c1 (single isomer, unassigned) [Compound I-255] | < 100
O=C(CCCCc1cc(Cl)c(COC2(c3cnccc3-c3ccccc3OC3CC3)CC2)cc1Cl)N(CC(O)CO)C[C@H](O)[C@@H](O)[C@H](O)[C@H](O)CO (stereo partly drawn) [Compound I-122, 5-(2,5-dichloro-4-((1-(4-(2-cyclopropoxyphenyl)pyridin-3-yl)cyclopropoxy)methyl)phenyl)-N-(2,3-dihydoxypropyl)-N-((2S,3R,4R,5R)-2,3,4,5,6-pentahydroxyhexyl) pentanamide] | < 100
CN(CCCCNC(=O)NC[C@H](O)[C@@H](O)[C@H](O)[C@H](O)CO)S(=O)(=O)c1cc(COC2(c3cnccc3-c3ccccc3OC3CC3)CC2)c(Cl)cc1F [Compound I-466, 1-{4-[N-methyl4-chloro-5-({1-[4-(2-cyclopropoxyphenyl)pyridin-3-yl]cyclopropoxy}methyl)-2-fluorobenzenesulfonamido]butyl}-3-[(2S,3R,4R,5R)-2,3,4,5,6-pentahydroxyhexyl]urea] | < 100
O=C(O)CCC(CCC(=O)O)(CCC(=O)O)NC(=O)CCCCc1cc(Cl)c(COC2(c3cnccc3-c3ccccc3OC3CC3)CC2)cc1Cl [Compound I-102, 4-(2-carboxyethyl)-4-{5-[2,5-dichloro-4-({1-[4-(2-cyclopropoxyphenyl)pyridin-3-yl]cyclopropoxy}methyl)phenyl]pentanamido}heptanedioic acid] | 126 to 1000
C[C@H](CCCC(=O)N(C)C[C@H](O)[C@@H](O)[C@H](O)[C@H](O)CO)c1ccc(Cl)c(CNC2(c3cnccc3-c3ccccc3OC3CC3)CC2)c1 (single isomer, unassigned) [Compound I-326] | < 100
CCNC(=O)[C@H](CCCCNS(=O)(=O)c1ccc(Cl)c(COC2(c3cnccc3-c3ccccc3OC3CC3)CC2)c1)NC(=O)NC[C@H](O)[C@@H](O)[C@H](O)[C@H](O)CO [Compound I-487] | 126 to 1000
O=C1CCO[C@H]([C@@H](O)[C@H](O)[C@H](O)CO)CN1CCCCc1cc(Cl)c(COC2(c3cnccc3-c3ccccc3OC3CC3)CC2)cc1Cl [Compound I-78, (S)-4-(4-(2,5-dichloro-4-((1-(4-(2-cyclopropoxyphenyl)pyridin-3-yl)cyclopropoxy)methyl)phenyl)butyl)-2-((1S,2R,3R)-1,2,3,4-tetrahydroxybutyl)-1,4-oxazepan-5-one] | < 100
